Test results published in patent US8017611B2, “Pyridine and pyrazine derivatives -083” (AstraZeneca AB, priority 2007, dated 2011).
Marks after values point to notes of the source that are not given here.

Molecular target: T1, recombinant Axl tyrosine kinase (Homo sapiens, UniProt P30530)
T1 construct: encompassing amino acids 473 to 894 of Axl; GST (N); made in house; host or cells: SF126 insect cells
T1 sequence (P30530 473-894): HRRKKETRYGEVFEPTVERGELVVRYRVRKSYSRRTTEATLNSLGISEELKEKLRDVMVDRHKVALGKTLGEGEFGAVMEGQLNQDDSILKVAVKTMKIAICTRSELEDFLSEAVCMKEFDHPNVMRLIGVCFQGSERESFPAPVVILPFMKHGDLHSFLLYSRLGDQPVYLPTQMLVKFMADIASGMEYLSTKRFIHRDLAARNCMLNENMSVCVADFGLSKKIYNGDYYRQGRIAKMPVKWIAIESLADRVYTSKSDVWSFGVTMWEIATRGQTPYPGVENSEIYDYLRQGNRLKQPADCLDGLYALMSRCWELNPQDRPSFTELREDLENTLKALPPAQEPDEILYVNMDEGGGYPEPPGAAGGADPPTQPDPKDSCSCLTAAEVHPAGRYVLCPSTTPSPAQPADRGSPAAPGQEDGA
Assay: In vitro Axl kinase assay (AlphaScreen), Test (a)
Assay type: biochemical
Details: for % Axl tyrosine kinase inhibition at 1 μM concentration / inhibition at 1 µM: test compound at 1 μM, first value quoted; for inhibition at 1 µM: read-out: % Axl tyrosine kinase inhibition at 1 μM concentration

% Axl tyrosine kinase inhibition at 1 μM concentration	Compound	other results
99.7%	COc1cc(-c2cnc(N)c(-c3nc4ncccc4o3)c2)ccc1OCCN1CCCC1 [Example 43C.5]	–
99.8%	Nc1ncc(-c2ccc(C(=O)NCC3CCCCN3)cc2)cc1-c1nc2cccnc2o1 (stereo not shown) [Example 45A.104]	–
98.9%	COc1cc(-c2cnc(N)c(-c3nc4ncccc4o3)c2)ccc1OC1CCN(C)CC1 [Example 43C.11]	–
97.1%	CS(=O)(=O)c1cccc(-c2cnc(N)c(-c3nc4ccccc4o3)c2)c1 [Example 2.48]	–
97.1%	Nc1ncc(-c2ccc(C(=O)N3CCC(O)CC3)cc2)cc1-c1nc2cnccc2o1 [Example 8A.8]	–
88.8%	COCCN1CCN(C(=O)c2ccc(-c3cnc(N)c(-c4nc5cccnc5o4)c3)cc2)CC1 [Example 45A.59]	–
99.8%	CN1CCC(n2cc(-c3cnc(N)c(-c4nc5ncccc5o4)c3)cn2)CC1 [Example 41.4]	–
45.4%	Nc1ncc(-c2ccc3c(c2)OCCO3)cc1-c1nc2ccccc2o1 [Example 2.21]	–
95.0%	Nc1ncc(-c2ccc(C(=O)N3CCC(N)CC3)cc2)cc1-c1nc2cccnc2o1 [Example 45A.107]	–
98.4%	CN(C)CCCOc1ccc(-c2cnc(N)c(-c3nc4ncccc4o3)c2)cc1 [Example 43B.10]	–
81.0%	CS(=O)(=O)Oc1cccc(-c2cnc(N)c(-c3nc4ccccc4o3)c2)c1 [Example 2.52]	–
97.3%	Nc1ncc(-c2ccc(C(=O)NC3CCNCC3)cc2)cc1-c1nc2cccnc2o1 [Example 45A.103]	–
19.0^††† %	Nc1ncc(-c2ccc(OCCN3CCCCC3)cc2)cc1-c1nc2ncccc2o1 [Example 43B.8]	% of Axl tyrosine kinase activity inhibited at a concentration of 30 μM (test compound at 30 μM): ^†††the compound disclosed in Example 43B.8 inhibited 98% of Axl tyrosine kinase activity at a concentration of 30 μM.
99.1%	NCc1ccc(-c2cnc(N)c(-c3nc4cnccc4o3)c2)cc1 [Example 8A.23]	–
98.1%	Nc1ncc(-c2ccc(C(=O)N3CCN(Cc4ccccn4)CC3)cc2)cc1-c1nc2cccnc2o1 [Example 45A.60]	–
97.7%	CNS(=O)(=O)c1cccc(-c2cnc(N)c(-c3nc4cnccc4o3)c2)c1 [Example 8A.6]	–
99.9%	Nc1ncc(-c2ccc(OCCCN3CCCC3)cc2)cc1-c1nc2ncccc2o1 [Example 43B.18]	–
97.4%	Nc1ncc(-c2ccc(C(=O)NCCCN3CCCC3)cc2)cc1-c1nc2cccnc2o1 [Example 45A.6]	–
99.8%	COc1cc(-c2cnc(N)c(-c3nc4ncccc4o3)c2)ccc1OCC1CCCNC1 (stereo not shown) [Example 43C.33]	–
97.7%	Nc1ncc(-c2ccc(C(=O)NCCN3CCOCC3)cc2)cc1-c1nc2ncccc2o1 [Example 45B.3]	–
99.5%	Nc1ncc(-c2ccc(C(=O)N3CCCC(N)CC3)cc2)cc1-c1nc2cccnc2o1 (stereo not shown) [Example 45A.95]	–
91.7%	Nc1ncc(-c2ccc(C(=O)N3CCC4(CCNC4)CC3)cc2)cc1-c1nc2cccnc2o1 [Example 45A.89]	–
99.9%	COc1cc(-c2cnc(N)c(-c3nc4ncccc4o3)c2)ccc1OCCN1CCCCC1 [Example 43C.8]	–
99.0%	Nc1ncc(-c2ccc(OCC3CCCNC3)cc2)cc1-c1nc2ncccc2o1 (stereo not shown) [Example 43B.41]	–

Further lines, the compound ahead of its results:

Compound	% Axl tyrosine kinase inhibition at 1 μM concentration	other results
Nc1ncc(-c2ccc(CN3CCOCC3)cc2)nc1-c1nc2ccccc2o1 [Example 20.6]	99.1%	% Axl tyrosine kinase inhibition at 1 μM concentration (second value, †) (1 μM, mean calculated from a larger number of replicates than the first value): 99.2%
CN1CC(n2cc(-c3cnc(N)c(-c4nc5ccccc5o4)c3)cn2)C1 [Example 41.8]	99.7%	–
Cc1nn(C2CCN(C)CC2)cc1-c1cnc(N)c(-c2nc3c(C#N)cccc3o2)c1 [Example 41.40]	99.2%	–
COCc1nn(C2CCNCC2)cc1-c1cnc(N)c(-c2nc3ccccc3o2)c1 [Example 25.14, 3-(1,3-benzoxazol-2-yl)-5-[3-(methoxymethyl)-1-(4-piperidyl)pyrazol-4-yl]pyridin-2-amine]	–	inhibition at 1 µM: 100%
CN(C)S(=O)(=O)c1cccc(-c2cnc(N)c(-c3nc4ccccc4o3)n2)c1 [Example 20.1]	91.8%	–
CN1CCN(c2ccc(-c3cnc(N)c(-c4nc5ccccc5o4)n3)cn2)CC1 [Example 20.7]	99.6%	–
CN1CCC(n2cc(-c3cnc(N)c(-c4nc5ccc(F)c(F)c5o4)c3)cn2)CC1 [Example 41.16]	98.3%	–
Nc1ncc(-c2cccc(N3CCNCC3)c2)cc1-c1nc2ccccc2o1 [Example 2.10, 3-(1,3-Benzoxazol-2-yl)-5-(3-piperazin-1-ylphenyl)pyridin-2-amine]	–	inhibition at 1 µM: 99.5%
CN1CCC(Cn2cc(-c3cnc(N)c(-c4nc5ccccc5o4)c3)cn2)C1 (stereo not shown) [Example 41.15]	98.4%	–
Nc1ncc(-c2cccc(N3CCOCC3)c2)nc1-c1nc2ccccc2s1 [Example 49, 3-(1,3-Benzothiazol-2-yl)-5-(3-morpholinophenyl)pyrazin-2-amine]	–	inhibition at 1 µM: 73.4%
CNC(=O)c1cccc2nc(-c3cc(-c4cnn(C5CCNCC5)c4)cnc3N)oc12 [Example 70, 2-[2-amino-5-[1-(4-piperidyl)pyrazol-4-yl]-3-pyridyl]-N-methyl-1,3-benzoxazole-7-carboxamide]	–	inhibition at 1 µM: 99.9%
N#Cc1cccc2oc(-c3cc(-c4cnn(C5CCNCC5)c4)cnc3N)nc12 [Example 38A.3]	99.9%	–
Nc1ncc(-c2cccc(C(=O)NC3CC3)c2)cc1-c1nc2cnccc2o1 [Example 8A.7]	87.8%	–
COCc1cccc(-c2cnc(N)c(-c3nc4ccccc4o3)n2)c1 [Example 20.17]	98.8%	–
COCC(=O)N1CCC(n2cc(-c3cnc(N)c(-c4nc5cccnc5o4)c3)cn2)CC1 [Example 57.5]	99.8%	–
CN1CCN(c2ncc(-c3cnc(N)c(-c4nc5ccccc5o4)c3)s2)CC1 [Example 25.5, 3-(1,3-benzoxazol-2-yl)-5-[2-(4-methylpiperazin-1-yl)thiazol-5-yl]pyridin-2-amine]	–	inhibition at 1 µM: 82.9%
Nc1ncc(-c2cccc(N3CCCCC3)c2)cc1-c1nc2cnccc2o1 [Example 8A.21]	85.8%	–
COCCOC(=O)N1CCC(n2cc(-c3cnc(N)c(-c4nc5ncccc5o4)c3)cn2)CC1 [Example 54, 2-methoxyethyl 4-[4-(6-amino-5-oxazolo[4,5-b]pyridin-2-yl-3-pyridyl)pyrazol-1-yl]piperidine-1-carboxylate]	–	inhibition at 1 µM: 99.5%
Nc1ncc(-c2cnn(C3CCNCC3)c2)cc1-c1nc2ccccc2o1 [Example 2.3, 3-(1,3-Benzoxazol-2-yl)-5-[1-(4-piperidyl)pyrazol-4-yl]pyridin-2-amine]	–	inhibition at 1 µM: 98.6%
Nc1ncc(-c2cnn(CC3CCNCC3)c2)cc1-c1nc2ccccc2o1 [Example 29.7]	99.8%	–
